“And” between values parts separate entries of the source, which are not always exact repeats. Equal values may be shown once. Where a name gives a salt, the structure may show the parent alone. Read-outs that look alike come from different tables or passages of the source.
Experiments:
[1] = biological target: T1, rat CYP51 (Rattus norvegicus, UniProt Q64654); assay: CYP51 enzymatic assay (LC/MS quantitation of FF-MAS); format: biochemical
T1 construct: purchased Cypex, Inc
T1 sequence (Q64654 1-503): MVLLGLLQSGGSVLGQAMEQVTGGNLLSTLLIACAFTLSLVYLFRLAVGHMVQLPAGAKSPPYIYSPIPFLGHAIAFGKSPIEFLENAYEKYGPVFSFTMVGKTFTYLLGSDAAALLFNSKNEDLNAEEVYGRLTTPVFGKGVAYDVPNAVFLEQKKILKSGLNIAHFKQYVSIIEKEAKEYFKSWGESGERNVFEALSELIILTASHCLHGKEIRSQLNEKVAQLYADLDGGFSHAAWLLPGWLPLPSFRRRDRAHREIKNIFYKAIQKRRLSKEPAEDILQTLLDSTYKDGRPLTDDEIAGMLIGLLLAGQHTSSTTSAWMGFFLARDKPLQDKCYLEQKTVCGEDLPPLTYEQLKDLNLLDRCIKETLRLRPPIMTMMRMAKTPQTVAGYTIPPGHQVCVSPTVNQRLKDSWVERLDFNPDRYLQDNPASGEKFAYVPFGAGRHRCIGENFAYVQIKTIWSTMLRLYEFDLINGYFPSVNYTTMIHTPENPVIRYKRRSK
Procedure: Finally, 15 μl of each reaction/isopropanol mixture was injected onto a SCIEX Triple Quad 6500 LC-MS/MS system using an APCI ion source in positive ion mode with a Shimadzu UFLC-20AD HPLC and a Phenomenex

[2] = tested on: mouse epiblast stem cell-derived OPCs; assay: In vitro phenotypic screening of OPCs (MBP+ oligodendrocytes at 72 h); format: cell-based
Procedure: Then, 40,000 cells were seeded per well in differentiation medium and allowed to attach for 30 min before addition of drug. […] Sterols were added to cells as an ethanol solution (0.2% final ethanol concentration). […] Cells were incubated under standard conditions (37° C., 5% CO2) for 3 days and fixed with 4% paraformaldehyde (PFA) in phosphate buffered saline (PBS) for 20 min. Fixed plates were washed with PBS (200 μL per well) twice, permeabilized with 0.1% Triton X-100 and blocked with 10% donkey serum (v/v) in PBS for 40 min. […] Nuclei were visualized by DAPI staining (Sigma; 1 μg/ml).

[3] = tested on: OPCs (OPC-1 derivation); assay: High-throughput screening of 3,000 bioactive small molecules for MBP+ oligodendrocyte formation; details: 2 μM, 72 h; for % Oligos: MBP+; for fold-change in % MBP + oligodendrocytes: relative to DMSO controls of the same plate
Text: Plates were imaged on the Operetta High Content Imaging and Analysis system (PerkinElmer) and a set of 6 fields captured from each well resulting in an average of 1200 cells being scored per well. Analysis (PerkinElmer Harmony and Columbus software) began by identifying intact nuclei stained by DAPI; that is, those traced nuclei that were larger than 300 μm^2 in surface area. Each traced nucleus region was then expanded by 50% and cross-referenced with the […] (MBP) stain to identify oligodendrocyte nuclei, and from this the percentage of oligodendrocytes was calculated. In some experiments, the total process length of MBP+ oligodendrocytes was calculated as previously described.
EpiSC-derived OPCs were grown and expanded in poly-ornithine and laminin-coated flasks before harvesting for plating. Cells were dispensed in differentiation media supplemented with Noggin (R&D Systems; 100 ng/ml), Neurotrophin 3 (R&D Systems; 10 ng/ml), cAMP (Sigma; 50 μM), and IGF-1 (R&D Systems; 100 ng/ml)) using a Biotek EL406 Microplate Washer Dispenser (Biotek) equipped with 5 μL dispense cassette (Biotek), into poly-D-lysine/laminin (Sigma, L2020; 4 μg/ml)-coated sterile, 384-well, CellCarrier ultra plates (PerkinElmer), to a final density of 12,500 cells per well and allowed to attach for 45 min before addition of drug. A 3 mM stock of bioactive compound library in dimethylsulphoxide (DMSO) were prepared in an Abgene storage 384-well plate (ThermoFisher Scientific; AB1055). These were added to assay plates using a 50 nL solid pin tool attached to Janus automated workstation (Perkin Elmer), resulting in a final screening concentration of 2 μM. Cells were incubated at 37° C. for 1 hour and then T3 (Sigma; 40 ng/ml) was added to all wells except negative controls, to which FGF (20 ng/ml) was added instead. Negative controls and T3-alone were included in each assay plate. After incubation at 37° C. for 72 h, cells were fixed, washed and stained similar to 96-well OPC assay protocol, although all the washing steps were performed using a Biotek EL406 Microplate Washer Dispenser (Biotek) equipped with a 96-well aspiration manifold. Cells were stained with DAPI (Sigma; 1 μg/ml) and MBP antibody (Abeam, ab7349; 1:100). Plates were imaged on the Operetta High Content Imaging and Analysis system (PerkinElmer) and a set of 4 fields captured from each well resulting in an average of 700 cells being scored per well. Analysis was performed as in High-Content Imaging and Analysis, above. All plates for the primary screen were processed and analyzed simultaneously to minimize variability. Molecules causing more than 20% reduction in nuclear count relative to DMSO control wells were removed from consideration, and hits were called on the basis of largest fold-increase in percentage of MBP+ oligodendrocytes relative to DMSO controls within the same plate.

[4] = tested on: OPCs; assay: GC/MS-based sterol profiling in OPCs; format: cell-based, mouse; details: for sterol levels / sterol intermediate accumulation in OPCs: 24 h treatment (siRNA 96 h)
[5] = biological target: T2, EBP (Mus musculus, UniProt P70245); assay: EBP enzymatic assay (GC/MS); format: biochemical; details: 10 μM, zymostenol 25 μM
T2 construct: active EBP was obtained from mouse microsomes; from tissue
T2 sequence (P70245 1-230): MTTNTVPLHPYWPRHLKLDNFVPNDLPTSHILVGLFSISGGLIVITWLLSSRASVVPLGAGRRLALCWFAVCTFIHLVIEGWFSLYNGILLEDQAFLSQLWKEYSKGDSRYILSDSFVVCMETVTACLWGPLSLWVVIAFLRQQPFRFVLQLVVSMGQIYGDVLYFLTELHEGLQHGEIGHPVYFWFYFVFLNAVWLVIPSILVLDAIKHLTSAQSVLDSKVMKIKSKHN

[6] = tested on: T47D cells; details: 5 days
[7] = listed as Raloxifene hydrochloride, HCl

Compound: CC(=O)N1CCN(c2ccc(OC[C@@H]3CO[C@](Cn4ccnc4)(c4ccc(Cl)cc4Cl)O3)cc2)CC1 (stereo in doubt) [R-trans-Ketoconazole]
- inhibition of mammalian CYP51 in vitro [1]: strikingly less effective at inhibiting mammalian CYP51

Compound: CC(=O)N1CCN(c2ccc(OC[C@H]3CO[C@@](Cn4ccnc4)(c4ccc(Cl)cc4Cl)O3)cc2)CC1 (stereo in doubt) [S-trans-Ketoconazole]
- inhibition of mammalian CYP51 in vitro [1]: strikingly less effective at inhibiting mammalian CYP51

Compound: CC(C)CCC[C@@H](C)[C@H]1CC=C2C3=C(CC[C@@]21C)[C@@]1(C)CCC(O)CC1CC3 (stereo partly drawn) [14-dehydrozymostenol, cholesta-8,14-dien-β-ol]
- formation of MBP+ oligodendrocytes from OPCs [2]: enhanced the formation of MBP+ oligodendrocytes

Compound: Clc1ccccc1C(c1ccccc1)(c1ccccc1)n1ccnc1 [Clotrimazole]
- % Oligos [3]: 34.36% and 27.93%
- fold-change in % MBP + oligodendrocytes [3]: 5.88

Compound: C[C@]12CC[C@@H]3c4ccc(O)cc4C[C@@H](CCCCCCCCC[S+]([O-])CCCC(F)(F)C(F)(F)F)[C@H]3[C@@H]1CC[C@@H]2O (stereo partly drawn) [Fulvestrant]
- cholesterol pathway enzyme inhibited in OPCs (from sterol profile) ([4]; GC/MS, 24 h): targeted CYP51

Compound: Cl.O[Si](CCCN1CCCCC1)(c1ccc(F)cc1)C1CCCCC1 (stereo not drawn) [Hexahydro-sila-difenidol hydrochloride, p-fluoro analog]
- % Oligos [3]: 26.76%

Compound: Cl.Cl.OCCOCCN1CCN(C(c2ccccc2)c2ccc(Cl)cc2)CC1 (stereo not drawn) [Hydroxyzine 2HCl]
- cell viability (% relative to DMSO) [3]: 134.19%
- % Oligos [3]: 40.63%
- fold-change in % MBP + oligodendrocytes [3]: 4.80

Compound: Clc1ccc(C(Cn2ccnc2)OCc2c(Cl)cccc2Cl)c(Cl)c1 (stereo not drawn) [Isoconazole nitrate]
- % Oligos [3]: 53.25%

Compound: Cl.Clc1ccc(N2CCN(Cc3c[nH]c4ncccc34)CC2)cc1 [L-745,870 hydrochloride]
- % Oligos [3]: 32.61%

Compound: O=C(c1ccc(OCCN2CCCCC2)cc1)c1c(-c2ccc(O)cc2)sc2cc(O)ccc12 [Raloxifene HCl]
- % Oligos ([3]; HCl): 35.01%
- % Oligos [3, 7]: 33.33%
- fold-change in % MBP + oligodendrocytes [3, 7]: 3.77

Compound: Cc1cc(NC(=O)Nc2ccc(N(C)C)cc2)c2cc(F)cc(F)c2n1 [SB408124]
- cell viability (% relative to DMSO) [3]: 106.19%
- % Oligos [3]: 39.63%

Compound: COc1ccc(S(=O)(=O)N2CCC(N3CCC(C)CC3)CC2)cc1 [TASIN-1, Tasin-1]
- formation of MBP+ oligodendrocytes from OPCs [2]: enhanced formation of MBP+ oligodendrocytes
- inhibition of EBP enzymatic activity [5]: clear inhibition

Compound: CCN(CC)CCCCCCCCOC(=O)c1cc(OC)c(OC)c(OC)c1.Cl [TMB-8 hydrochloride]
- cell viability (% relative to DMSO) [3]: 139.42%
- % Oligos [3]: 18.47%

Compound: CCC(C)(C)c1ccc(CC(C)CN2C[C@@H](C)O[C@@H](C)C2)cc1 (stereo partly drawn) [amorolfine, Amorolfine]
- formation of MBP+ oligodendrocytes from OPCs [2]: enhanced formation of MBP+ oligodendrocytes

Compound: CN1[C@@H]2CC[C@H]1C[C@@H](OC(c1ccccc1)c1ccccc1)C2 [benztropine, Benztropine]
- sterol levels / sterol intermediate accumulation in OPCs ([4]; GC/MS): induced accumulation of zymostenol and zymosterol and decreased basal sterol levels
- inhibition of EBP enzymatic activity [5]: clear inhibition

Compound: C=C(c1ccc(C(=O)O)cc1)c1cc2c(cc1C)C(C)(C)CCC2(C)C [bexarotene, Bexarotene]
- sterol levels / sterol intermediate accumulation in OPCs ([4]; GC/MS): minimal effects on sterol levels

Compound: CC(C)CCC[C@@H](C)[C@H]1CC[C@H]2[C@@H]3CC=C4C[C@@H](O)CC[C@]4(C)[C@H]3CC[C@]12C [cholesterol, Cholesterol]
- formation of MBP+ oligodendrocytes from OPCs [2]: ineffective

Compound: CN1CCC[C@@H]1CCO[C@](C)(c1ccccc1)c1ccc(Cl)cc1 [clemastine, Clemastine]
- sterol levels / sterol intermediate accumulation in OPCs ([4]; GC/MS): induced accumulation of zymostenol and zymosterol and decreased basal sterol levels

Compound: OC(Cn1cncn1)(Cn1cncn1)c1ccc(F)cc1F [fluconazole, Fluconazole]
- inhibition of mammalian CYP51 in vitro [1]: did not inhibit mammalian CYP51 in vitro

Compound: OCCOCCN1CCN(C(c2ccccc2)c2ccc(Cl)cc2)CC1 (stereo not drawn) [hydroxyzine, Hydroxyzine]
- inhibition of EBP enzymatic activity [5]: directly inhibiting EBP enzymatic activity

Compound: CC(C)=CCC[C@@H](C)[C@H]1CC[C@@]2(C)C3=C(CC[C@]12C)[C@@]1(C)CC[C@H](O)C(C)(C)[C@@H]1CC3 [lanosterol, Lanosterol]
- formation of MBP+ oligodendrocytes from OPCs [2]: enhanced formation of MBP+ oligodendrocytes in a dose-responsive fashion

Compound: N[C@@H](Cc1cc(I)c(Oc2ccc(O)c(I)c2)c(I)c1)C(=O)O [liothyronine, Liothyronine]
- sterol levels / sterol intermediate accumulation in OPCs ([4]; GC/MS): minimal effects on sterol levels

Compound: OCCOc1ccc(/C(=C(/CCCl)c2ccccc2)c2ccccc2)cc1 [ospemifene, Ospemifene]
- formation of MBP+ oligodendrocytes from OPCs [2]: did not enhance differentiation to MBP+ oligodendrocytes
- cholesterol pathway enzyme inhibited in OPCs (from sterol profile) [4]: did not inhibit EBP in OPCs
- antiestrogen effects on estrogen-dependent growth [6]: comparable antiestrogen effects

Compound: CN(C)CCOc1ccc(/C(=C(/CCCl)c2ccccc2)c2ccccc2)cc1 [toremifene, Toremifene]
- formation of MBP+ oligodendrocytes from OPCs [2]: enhanced MBP+ oligodendrocyte generation over a wide dose range
- cholesterol pathway enzyme inhibited in OPCs (from sterol profile) ([4]; GC/MS, 24 h): inhibited EBP
- antiestrogen effects on estrogen-dependent growth [6]: comparable antiestrogen effects

Compound: CC(C)CCC[C@@H](C)[C@H]1CC[C@H]2C3=C(CC[C@]12C)[C@@]1(C)CC[C@H](O)C[C@@H]1CC3 [zymostenol, Zymostenol]
- formation of MBP+ oligodendrocytes from OPCs [2]: enhanced the formation of MBP+ oligodendrocytes

Compound: (±)-Vesamicol
- cell viability (% relative to DMSO) [3]: 112.02%
- % Oligos [3]: 34.23%

Compound: Ifenprodil Tartrate
- cell viability (% relative to DMSO) [3]: 103.79%
- % Oligos [3]: 41.41%
- % Oligos ([3]; listed as ifenprodil tartrate): 33.69%
- fold-change in % MBP + oligodendrocytes [3]: 4.89
- fold-change in % MBP + oligodendrocytes ([3]; listed as ifenprodil tartrate): 3.61
- cell viability (% relative to DMSO) ([3]; listed as ifenprodil tartrate): 106.02%

Compound: Varenicline tartrate
- cell viability (% relative to DMSO) [3]: 144.02%
- % Oligos [3]: 22.86%
